Results: patent US7585460B2, “Method for inhibiting the biological acidification of water in contact with materials containing sulfur” (ENI S.p.A., priority 2003, dated 2009)

Legend:
Assay type in all cases: cell-based, Thiobacillus
Thiobacilli (consortium) = assay: Effect of different salts on acidification, TM medium with sulfur powder and inoculated mixed culture (Example 7)
Experimental: The verification is aimed at discovering the effects deriving from the presence of different salts at varying concentrations on the same consortium.
A series of 12 100 ml flasks containing 50 ml of TM medium (with 0.4 g of sulfur powder), was inoculated with 1 ml of mixed culture containing 10^8 cells/ml.
• 3 control flasks containing TM and sulfur, with NaCl (0.16 M, 0.33 M, 0.56 M); • 3 flasks with TM, sulfur and Na2SO4 (0.12 M, 0.24 M, 0.56 M); • 3 flasks with TM, sulfur and KCl (0.13 M, 0.26 M, 0.56 M); • 3 flasks with TM, sulfur and KNO3 (0.09 M, 0.19 M, 0.56 M) The data collected are listed in Table 6.

Thiobacilli [1] = assay: Acidification of rainwater over submersed sulfur block wetted with Thiobacilli, outdoors (Example 8); details: 30 g/l NaCl
Experimental: Two blocks of elemental sulfur with an upper surface of approximately 2500 cm^2 (8.5 Kg of sulfur) are positioned in two containers. The upper surface of each block of sulfur is wetted with 250 ml of a bacterial suspension of Thiobacilli containing over 10^8 bacteria per milliliter. The two blocks are subsequently submersed with rainwater. Sodium chloride is added to one of the containers until a concentration of 30 g/l is reached.
The containers are exposed to the outside environment for three months, care being taken to regularly replace the water possibly lost by evaporation. At the end of this period, the pH of the solution in the two containers is measured.

[2] = tested on: strains of the Thiobacilli type present in a natural environment; assay: Acidification of TM medium or rainwater with sulfur powder, no inoculation (Example 4)
Text: To imitate the bacterial growth conditions in a natural environment, the same experiment as Example 1 was repeated without the inoculation of Thiobacilli.
The TM saline medium was compared with a medium consisting of rainwater sterilized at a low temperature by filtration on a membrane of cellulose nitrate (porosity 0.2 microns).
The experiment is aimed at verifying the inhibiting action of NaCl on the acidification of water rich and poor in nutrients in contact with elemental sulfur due to strains of the Thiobacilli type present in a natural environment.

Thiobacilli [3] = assay: Acidification of water on sulfur block treated with salt powder and covered with sand (Example 9); details: about 150 g of salt in powder form on surface, 2 cm sand
Experimental: (§1) Two blocks of elemental sulfur with an upper surface of approximately 2500 cm^2 (8.5 Kg of sulfur) are positioned in two containers. The upper surface of each block of sulfur is wetted with 250 ml of a bacterial suspension of Thiobacilli containing over 10^8 bacteria per milliliter. The surface of one block is then treated with sodium chloride by spreading about 150 g of salt in powder form uniformly distributed. The two blocks are subsequently covered with a 2 cm layer of sand and wetted at regular intervals of time with rainwater until the layer of sand is saturated and the rilling of excess water is produced with respect to the saturation. Rainwater is added every month in a quantity equivalent to a fall of 100 mm.
(§2) The containers are exposed to the outside environment for three months. At the end of this period, the pH of the water in contact with the sulfur in the two containers, is measured.

Thiobacilli [4] = assay: Acidification of water on sulfur block with salt englobed in surface sulfur layer, covered with sand (Example 10); details: 3 mm sulfur layer containing sodium chloride (10%), 2 cm sand
Experimental: as §1, with “containers. The surface of one block is then covered with a fine layer (3 mm) of liquid sulfur containing sodium chloride (10%).” for “containers.”, “milliliter.” for “milliliter. The surface of one block is then treated with sodium chloride by spreading about 150 g of salt in powder form uniformly distributed.”
as §2

[Cl-].[Na+] [NaCl, Sodium Chloride]
PH (Thiobacilli (consortium); salt 0.16 M, day 0): 6.0
PH (Thiobacilli (consortium); salt 0.16 M, day 2): 6.0
PH (Thiobacilli (consortium); salt 0.16 M, day 6): 3.5
PH (Thiobacilli (consortium); salt 0.16 M, day 9): 2.8
PH (Thiobacilli (consortium); salt 0.16 M, day 12): 2.8
PH (Thiobacilli (consortium); salt 0.16 M, day 15): 2.5
PH (Thiobacilli (consortium); salt 0.16 M, day 18): 2.5
PH (Thiobacilli (consortium); salt 0.16 M, day 20): 2.5
PH (Thiobacilli (consortium); salt 0.16 M, day 24): 2.0
PH (Thiobacilli (consortium); salt 0.16 M, day 28): 1.7
PH (Thiobacilli (consortium); salt 0.16 M, day 30): 1.6
PH (Thiobacilli (consortium); salt 0.16 M, day 40): 1.3
PH (Thiobacilli (consortium); salt 0.33 M, day 0): 6.0
PH (Thiobacilli (consortium); salt 0.33 M, day 2): 6.0
PH (Thiobacilli (consortium); salt 0.33 M, day 6): 5.5
PH (Thiobacilli (consortium); salt 0.33 M, day 9): 5.0
PH (Thiobacilli (consortium); salt 0.33 M, day 12): 3.0
PH (Thiobacilli (consortium); salt 0.33 M, day 15): 3.0
PH (Thiobacilli (consortium); salt 0.33 M, day 18): 3.0
PH (Thiobacilli (consortium); salt 0.33 M, day 20): 2.5
PH (Thiobacilli (consortium); salt 0.33 M, day 24): 2.5
PH (Thiobacilli (consortium); salt 0.33 M, day 28): 1.9
PH (Thiobacilli (consortium); salt 0.33 M, day 30): 1.7
PH (Thiobacilli (consortium); salt 0.33 M, day 40): 1.4
PH (Thiobacilli (consortium); salt 0.56 M, day 0): 6.0
PH (Thiobacilli (consortium); salt 0.56 M, day 2): 6.0
PH (Thiobacilli (consortium); salt 0.56 M, day 6): 6.0
PH (Thiobacilli (consortium); salt 0.56 M, day 9): 6.0
PH (Thiobacilli (consortium); salt 0.56 M, day 12): 6.0
PH (Thiobacilli (consortium); salt 0.56 M, day 15): 6.0
PH (Thiobacilli (consortium); salt 0.56 M, day 18): 6.0
PH (Thiobacilli (consortium); salt 0.56 M, day 20): 6.0
PH (Thiobacilli (consortium); salt 0.56 M, day 24): 6.0
PH (Thiobacilli (consortium); salt 0.56 M, day 28): 6.0
PH (Thiobacilli (consortium); salt 0.56 M, day 30): 6.0
PH (Thiobacilli (consortium); salt 0.56 M, day 40): 5.8
pH (Thiobacilli [1]; day 0): 6.0
pH (Thiobacilli [1]; day 10): 5.9
pH (Thiobacilli [1]; day 20): 5.8
pH (Thiobacilli [1]; day 30): 5.8
pH (Thiobacilli [1]; day 40): 5.8
pH (Thiobacilli [1]; day 90): 5.8
pH ([2]; Rainwater + NaCl, day 0): 6.0
pH ([2]; Rainwater + NaCl, day 2): 6.0
pH ([2]; Rainwater + NaCl, day 4): 6.0
pH ([2]; Rainwater + NaCl, day 7): 6.0
pH ([2]; Rainwater + NaCl, day 9): 6.0
pH ([2]; Rainwater + NaCl, day 11): 6.0
pH ([2]; Rainwater + NaCl, day 14): 6.0
pH ([2]; Rainwater + NaCl, day 21): 5.8
pH ([2]; Rainwater + NaCl, day 23): 5.8
pH ([2]; TM Medium + NaCl, day 0): 6.0
pH ([2]; TM Medium + NaCl, day 2): 6.0
pH ([2]; TM Medium + NaCl, day 4): 6.0
pH ([2]; TM Medium + NaCl, day 7): 6.0
pH ([2]; TM Medium + NaCl, day 9): 6.0
pH ([2]; TM Medium + NaCl, day 11): 6.0
pH ([2]; TM Medium + NaCl, day 14): 6.0
pH ([2]; TM Medium + NaCl, day 21): 5.8
pH ([2]; TM Medium + NaCl, day 23): 5.8
pH (Thiobacilli [3]; day 0): 6.0
pH (Thiobacilli [3]; day 10): 5.8
pH (Thiobacilli [3]; day 20): 5.7
pH (Thiobacilli [3]; day 30): 5.7
pH (Thiobacilli [3]; day 40): 5.7
pH (Thiobacilli [3]; day 90): 5.7
pH (Thiobacilli [4]; day 0): 6.5
pH (Thiobacilli [4]; day 10): 6.5
pH (Thiobacilli [4]; day 20): 6.5
pH (Thiobacilli [4]; day 30): 6.5
pH (Thiobacilli [4]; day 90): 6.5
